# Experimental data reported in patent publication US9029536B2, “Fused heterocyclic compounds” (Takeda Pharmaceutical Company Limited, priority 2010, dated 2015).
# Structures can show the parent of a compound that is named as a salt.
# Biological target: T1, Human PDE10A enzyme (Homo sapiens, UniProt Q9Y233)
# T1 construct: Sf9 or COS-7 cells transfected with the full-length gene; His-tag; made in house; host or cells: Sf9 or COS-7 cells
# Assay: PDE enzyme inhibition (SPA, [3H]cGMP)
# Assay type: biochemical
# Settings: 1 μM compound, [3H]cGMP substrate
# Experimental: Human PDE10A enzyme was generated from Sf9 or COS-7 cells transfected with the full-length gene. Cloned enzyme was extracted from homogenized cell pellets. The extracted enzyme from sf9 cells was partially purified using His-tag affinity column. The enzyme was stored at −70° C. until use. PDE activity was measured using a SPA (Scintillation Proximity Assay) (GE Healthcare). To evaluate the inhibitory activity, 10 μL of serial diluted compounds were incubated with 20 μL of PDE enzyme in assay buffer (50 mM HEPES-NaOH, 8.3 mM MgCl2, 1.7 mM EGTA, 0.1% BSA (pH 7.4)) for 30 min. at room temperature. Final concentration of DMSO in the assay was 1 percent as compounds were tested in duplicate in 96-well half-area plates (Corning). To start the reaction, 10 μL of substrate [^3H] cGMP (25 or 50 nM; enclosed in SPA kits from GE Healthcare or purchased from PerkinElmer, respectively) was added for a final assay volume of 40 μL. After 60 min incubation at room temperature, yttrium SPA beads containing Zinc sulphate were added (20 μL at 6 mg/mL) to terminate the PDE reaction. After being settled for 60 min, assay plates were counted in a scintillation counter (PerkinElmer) to allow calculation of inhibition rate. Inhibition rate was calculated on the basis of 0% control wells with DMSO and 100% control wells without enzyme.
# T1 sequence (Q9Y233 267-1055): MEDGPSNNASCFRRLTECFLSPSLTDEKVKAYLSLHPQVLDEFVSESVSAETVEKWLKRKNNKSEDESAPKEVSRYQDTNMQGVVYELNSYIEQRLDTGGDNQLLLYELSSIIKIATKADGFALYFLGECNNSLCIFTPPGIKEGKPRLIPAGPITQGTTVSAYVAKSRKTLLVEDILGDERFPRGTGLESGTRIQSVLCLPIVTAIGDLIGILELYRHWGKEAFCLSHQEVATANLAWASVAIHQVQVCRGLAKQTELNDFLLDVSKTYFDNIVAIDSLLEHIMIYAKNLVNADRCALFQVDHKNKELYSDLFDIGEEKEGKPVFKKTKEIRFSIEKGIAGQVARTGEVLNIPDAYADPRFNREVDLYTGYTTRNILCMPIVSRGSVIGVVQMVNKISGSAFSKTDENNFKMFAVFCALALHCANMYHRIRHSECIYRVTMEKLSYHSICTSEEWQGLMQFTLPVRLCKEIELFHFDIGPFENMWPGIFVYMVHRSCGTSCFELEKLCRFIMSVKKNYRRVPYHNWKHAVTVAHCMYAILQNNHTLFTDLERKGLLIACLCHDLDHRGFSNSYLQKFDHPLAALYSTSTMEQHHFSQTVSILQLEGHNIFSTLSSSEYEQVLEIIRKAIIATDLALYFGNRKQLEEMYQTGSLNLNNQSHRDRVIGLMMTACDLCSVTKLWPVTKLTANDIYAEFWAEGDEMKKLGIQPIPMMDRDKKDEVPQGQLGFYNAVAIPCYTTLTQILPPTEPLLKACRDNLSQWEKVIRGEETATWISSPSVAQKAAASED
row,SMILES,inhibition at 1 µM [%]
1,"Cn1c(Oc2ccc(-c3nn(CC(F)F)c4cccnc34)cc2)nc2cccnc21 [Example 39, 1-(2,2-Difluoroethyl)-3-{4-[(3-methyl-3H-imidazo[4,5-b]pyridin-2-yl)oxy]phenyl}-1H-pyrazolo[4,3-b]pyridine]",102
2,"CCn1nc(-c2ccc(C3CCn4c3nc3ccccc34)cc2)c2ncccc21 (centres unmarked) [Example 24, 3-[4-(1-Ethyl-1H-pyrazolo[4,3-b]pyridin-3-yl)phenyl]-2,3-dihydro-1H-pyrrolo[1,2-a]benzimidazole]",99
3,"CCn1nc(-c2ccc(C(=O)c3nc4ccccc4n3C)cc2)c2ncccc21 [Example 6, [4-(1-Ethyl-1H-pyrazolo[4,3-b]pyridin-3-yl)phenyl] (1-methyl-1H-benzimidazol-2-yl)methanone]",95
4,"CCn1nc(-c2ccc(Oc3cn4ccccc4n3)cc2)c2ncccc21 [Example 8, 1-Ethyl-3-[4-(imidazo[1,2-a]pyridin-2-yloxy)phenyl]-1H-pyrazolo[4,3-b]pyridine hydrochloride]",100
5,"CCn1nc(-c2ccc(Oc3nc4cccnc4n3C)cc2)c2nccnc21 [Example 28, 1-Ethyl-3-{4-[(3-methyl-3H-imidazo[4,5-b]pyridin-2-yl)oxy]phenyl}-1H-pyrazolo[3,4-b]pyrazine]",101
6,"COCCn1c(Oc2ccc(-c3nn(CC(F)F)c4cc(F)cnc34)cc2)nc2cccnc21 [Example 49, 1-(2,2-Difluoroethyl)-6-fluoro-3-(4-{[3-(2-methoxyethyl)-3H-imidazo[4,5-b]pyridin-2-yl]oxy}phenyl)-1H-pyrazolo[4,3-b]pyridine]",103
7,"CC(C)n1nc(-c2ccc(Oc3nc4cccnc4n3C)cc2)c2ncc(F)cc21 [Example 40, 6-Fluoro-1-(1-methylethyl)-3-{4-[(3-methyl-3H-imidazo[4,5-b]pyridin-2-yl)oxy]phenyl}-1H-pyrazolo[4,3-b]pyridine]",101
8,"CCn1nc(-c2ccc(Oc3nc4ccccc4[nH]3)cc2)c2ncccc21 [Example 3, 3-[4-(1H-Benzimidazol-2-yloxy)phenyl]-1-ethyl-1H-pyrazolo[4,3-b]pyridine]",97.7
9,Cn1c(Oc2ccc(-c3nn(CC(F)F)c4cc(F)cnc34)cc2)nc2cccnc21 [Example 51],102
10,"CC(C)n1nc(-c2ccc(Oc3nc4cccnc4n3C)cc2)c2ncccc21 [Example 18, 1-(1-Methylethyl)-3-{4-[(3-methyl-3H-imidazo[4,5-b]pyridin-2-yl)oxy]phenyl}-1H-pyrazolo[4,3-b]pyridine]",100
11,"Cn1nc(-c2ccc(Oc3nc4cccnc4n3C)cc2)c2ncccc21 [Example 44, 1-Methyl-3-{4-[(3-methyl-3H-imidazo[4,5-b]pyridin-2-yl)oxy]phenyl}-1H-pyrazolo[4,3-b]pyridine]",107
12,"CCn1nc(-c2ccc(Oc3nc4ccccc4n3C)cc2)c2ncccc21 [Example 4, 1-Ethyl-3-{4-[(1-methyl-1H-benzimidazol-2-yl)oxy]phenyl}-1H-pyrazolo[4,3-b]pyridine]",98.7
13,"Cn1cc(-c2ccc(Nc3nc4ccccc4o3)cc2)c2ncccc21 [Example 1, N-[4-(1-Methyl-1H-pyrrolo[3,2-b]pyridin-3-yl)phenyl]-1,3-benzoxazol-2-amine hydrochloride]",97.6
14,"CCn1nc(-c2ccc(Oc3nc4cccnc4n3CCOC)cc2)c2ncc(F)cc21 [Example 48, 1-Ethyl-6-fluoro-3-(4-{[3-(2-methoxyethyl)-3H-imidazo[4,5-b]pyridin-2-yl]oxy}phenyl)-1H-pyrazolo[4,3-b]pyridine]",104
15,"c1ccc2[nH]c(Oc3ccc(-c4c5n(c6cccnc46)CCCC5)cc3)nc2c1 [Example 13, 10-[4-(1H-Benzimidazol-2-yloxy)phenyl]-6,7,8,9-tetrahydropyrido[2,3-b]indolizine]",103
16,"CCn1nc(-c2ccc3c(c2)CCN3c2nc3ccccc3[nH]2)c2ncccc21 [Example 7, 3-[1-(1H-Benzimidazol-2-yl)-2,3-dihydro-1H-indol-5-yl]-1-ethyl-1H-pyrazolo[4,3-b]pyridine]",101
17,"CCn1nc(-c2ccc(Oc3nc4ccccc4[nH]3)nc2)c2ncccc21 [Example 10, 3-[6-(1H-Benzimidazol-2-yloxy)pyridin-3-yl]-1-ethyl-1H-pyrazolo[4,3-b]pyridine]",99
18,"COCCn1c(Oc2ccc(-c3nn(CC(F)F)c4cccnc34)cc2)nc2cccnc21 [Example 52, 1-(2,2-Difluoroethyl)-3-(4-{[3-(2-methoxyethyl)-3H-imidazo[4,5-b]pyridin-2-yl]oxy}phenyl)-1H-pyrazolo[4,3-b]pyridine]",101
19,"CCn1nc(-c2ccc(Oc3nc4cccnc4n3C)cc2)c2ncncc21 [Example 38, 1-Ethyl-3-{4-[(3-methyl-3H-imidazo[4,5-b]pyridin-2-yl)oxy]phenyl}-1H-pyrazolo[4,3-d]pyrimidine]",103
20,"CCn1nc(-c2ccc(Oc3nc4cccnc4n3CCOC)cc2)c2ncccc21 [Example 34, 1-Ethyl-3-(4-{[3-(2-methoxyethyl)-3H-imidazo[4,5-b]pyridin-2-yl]oxy}phenyl)-1H-pyrazolo[4,3-b]pyridine]",105
21,"Cn1nc(-c2ccc(Oc3nc4cccnc4n3C)cc2)c2ncc(F)cc21 [Example 45, 6-Fluoro-1-methyl-3-{4-[(3-methyl-3H-imidazo[4,5-b]pyridin-2-yl)oxy]phenyl}-1H-pyrazolo[4,3-b]pyridine]",95
22,"CCn1nc(-c2ccc(Oc3nc4ccccc4n3CC(C)(C)O)cc2)c2ncccc21 [Example 36, 1-{2-[4-(1-Ethyl-1H-pyrazolo[4,3-b]pyridin-3-yl)phenoxy]-1H-benzimidazol-1-yl}-2-methylpropan-2-ol]",99
23,"CCn1nc(-c2ccc(Oc3nc4cccnc4n3C)cc2)c2ncc(F)cc21 [Example 37, 1-Ethyl-6-fluoro-3-{4-[(3-methyl-3H-imidazo[4,5-b]pyridin-2-yl)oxy]phenyl}-1H-pyrazolo[4,3-b]pyridine]",101
24,"COCCn1c(Oc2ccc(-c3nn(C)c4cc(F)cnc34)cc2)nc2cccnc21 [Example 50, 6-Fluoro-3-(4-{[3-(2-methoxyethyl)-3H-imidazo[4,5-b]pyridin-2-yl]oxy}phenyl)-1-methyl-1H-pyrazolo[4,3-b]pyridine]",100
25,COCCn1c(Oc2ccc(-c3nn(C(C)C)c4cccnc34)cc2)nc2cccnc21 [Example 35],93

# Test system: not given
# Assay: not given
# Settings: not given
row,SMILES,melting point
1,"CCn1nc(-c2ccc(Oc3nc4cccnc4n3C)cc2)c2nccnc21 [Example 28, 1-Ethyl-3-{4-[(3-methyl-3H-imidazo[4,5-b]pyridin-2-yl)oxy]phenyl}-1H-pyrazolo[3,4-b]pyrazine]",161 to 162 °C
2,"CCn1nc(-c2ccc(Oc3nc4cccnc4n3C)cc2)c2ncccc21 [Example 14, 1-Ethyl-3-{4-[(3-methyl-3H-imidazo[4,5-b]pyridin-2-yl)oxy]phenyl}-1H-pyrazolo[4,3-b]pyridine]",176 to 177 °C
3,"CC(C)n1nc(-c2ccc(Oc3nc4cccnc4n3C)cc2)c2ncccc21 [Example 18, 1-(1-Methylethyl)-3-{4-[(3-methyl-3H-imidazo[4,5-b]pyridin-2-yl)oxy]phenyl}-1H-pyrazolo[4,3-b]pyridine]",163 to 164 °C
4,"c1ccc2[nH]c(Oc3ccc(-c4c5n(c6cccnc46)CCCC5)cc3)nc2c1 [Example 13, 10-[4-(1H-Benzimidazol-2-yloxy)phenyl]-6,7,8,9-tetrahydropyrido[2,3-b]indolizine]",264 °C (dec.)
5,"CCn1nc(-c2ccc(Oc3nc4cccnc4n3C)cc2)c2ncncc21 [Example 38, 1-Ethyl-3-{4-[(3-methyl-3H-imidazo[4,5-b]pyridin-2-yl)oxy]phenyl}-1H-pyrazolo[4,3-d]pyrimidine]",218 to 220 °C
6,"CCn1nc(-c2ccc(Oc3nc4ccccc4n3CC(C)(C)O)cc2)c2ncccc21 [Example 36, 1-{2-[4-(1-Ethyl-1H-pyrazolo[4,3-b]pyridin-3-yl)phenoxy]-1H-benzimidazol-1-yl}-2-methylpropan-2-ol]",152 to 153 °C
7,"CCn1nc(-c2ccc(Oc3nc4ccccc4n3CCO)cc2)c2ncccc21 [Example 29, 2-{2-[4-(1-Ethyl-1H-pyrazolo[4,3-b]pyridin-3-yl)phenoxy]-1H-benzimidazol-1-yl}ethanol]",183 to 184 °C
